This is an account of results in patent US20260265252A1, “SOLID STATE FORMS OF IMIPRIDONE DERIVATIVE” (CHIMERIX, INC., priority 2024, published 2026).

Where a name gives a salt, the structure may show the parent alone.

A short description of data set [1]: Dynamic vapor sorption (DVS) water uptake. In kind it is physicochemical. As to conditions: for total water uptake / water uptake: DVS; for hygroscopicity: characterised by DVS water uptake. From the text: Dynamic Vapor Sorption (DVS)
Vapor sorption data were collected on a Surface Measurement System DVS Intrinsic instrument. Samples were not dried prior to analysis. Sorption and desorption data were collected over the stated range from at 10% RH increments under a nitrogen purge. The equilibrium criterion used […]

A short description of data set [2]: Relative humidity (RH) experiments / exposure to moisture, solid form change. Type of data set: physicochemical. As to conditions: for form change: exposure to moisture / relative humidity (RH) experiments. From the text: The three batches of Compound I (ONC206·2HCl) manufactured to date are described below. The first two processes consistently produced Form 1 (i.e., desolvated anhydrous form, Form 1).

The nature of data set [3]: Solid form stability at ambient conditions. Type of data set: physicochemical.
In data set [4] the test system is diffuse midline glioma, H3 K27M-mutant (DMG H3K27M). The note with it: patients with diffuse midline glioma; cited from earlier work.

On to `O=C1C2=C(CCN(Cc3ccccc3)C2)N2CCN=C2N1Cc1ccc(F)cc1F` [Compound I Besylate Form A, 7-benzyl-4-(2,4-difluorobenzyl)-2,4,6,7,8,9-hexahydroimidazo[1,2-a]pyrido[3,4-e]pyrimidin-5(1H)-one], for which the total water uptake in data set [1] is 0.3%; in data set [1] (moles of water), under 0.1 mol. Moreover, the hygroscopicity result in data set [1] is listed as “non-hygroscopic”. Moreover, the water uptake in data set [1] (relative humidity of up to 95%) is reported as 0.3%.

Take `O=C1C2=C(CCN(Cc3ccccc3)C2)N2CCN=C2N1Cc1ccc(F)cc1F` [Compound I Form 1, 7-benzyl-4-(2,4-difluorobenzyl)-2,4,6,7,8,9-hexahydroimidazo[1,2-a]pyrido[3,4-e]pyrimidin-5(1H)-one]: the form change result in data set [2] was “tends to convert into Form 2”. For the same compound, the hygroscopicity result in data set [2] (statement in Example 1) and in data set [1] was “hygroscopic” in each case. For the same compound, the total water uptake is reported as 7.5% in data set [1] and ~ 2.2 moles in data set [1] (moles of water). In addition, the water uptake in data set [1] (relative humidity of 65% to 85%) is 6.7%; in data set [1] (relative humidity of 85% to 95%) it was 0.3%; in data set [1] (relative humidity of up to 65%), 0.5%.

Take `O=C1C2=C(CCN(Cc3ccccc3)C2)N2CCN=C2N1Cc1ccc(F)cc1F` [Compound I Form 2, 7-benzyl-4-(2,4-difluorobenzyl)-2,4,6,7,8,9-hexahydroimidazo[1,2-a]pyrido[3,4-e]pyrimidin-5(1H)-one]: in data set [2], the form change entry is listed as “no form change was observed”. In addition, the results for the total water uptake in data set [1] and in data set [1] (moles of water) were 2.5% and ~ 0.7 moles, respectively. Besides, the hygroscopicity entry in data set [1] was “hygroscopic”. Also, the water uptake stood at 1.8% in data set [1] (relative humidity of 5% to 25%) and 0.6% in data set [1] (relative humidity of 25% to 95%).

With `O=C1C2=C(CCN(Cc3ccccc3)C2)N2CCN=C2N1Cc1ccc(F)cc1F` [Compound I Form A, 7-benzyl-4-(2,4-difluorobenzyl)-2,4,6,7,8,9-hexahydroimidazo[1,2-a]pyrido[3,4-e]pyrimidin-5(1H)-one], the values for the total water uptake in data set [1] and in data set [1] (moles of water) were 0.3% and under 0.1 mol, respectively. Also, the hygroscopicity result in data set [1] is given as “non-hygroscopic”. The compound further had a water uptake in data set [1] (relative humidity of up to 95%) of 0.3%.

Regarding `O=C1C2=C(CCN(Cc3ccccc3)C2)N2CCN=C2N1Cc1ccc(F)cc1F` [Compound I Fumarate Form A, 7-benzyl-4-(2,4-difluorobenzyl)-2,4,6,7,8,9-hexahydroimidazo[1,2-a]pyrido[3,4-e]pyrimidin-5(1H)-one], the total water uptake in data set [1] was 0.7%; in data set [1] (moles of water), 0.1 mol. The hygroscopicity result in data set [1] is listed as “slightly hygroscopic”. The water uptake in data set [1] (relative humidity of up to 95%) is given as 0.7%.

Regarding `O=C1C2=C(CCN(Cc3ccccc3)C2)N2CCN=C2N1Cc1ccc(F)cc1F` [Compound I Material 14, 7-benzyl-4-(2,4-difluorobenzyl)-2,4,6,7,8,9-hexahydroimidazo[1,2-a]pyrido[3,4-e]pyrimidin-5(1H)-one], the “stability of the solid form” value in data set [3] is “metastable”.

Take `O=C1C2=C(CCN(Cc3ccccc3)C2)N2CCN=C2N1Cc1ccc(F)cc1F` [Compound I Sulfate Form A, 7-benzyl-4-(2,4-difluorobenzyl)-2,4,6,7,8,9-hexahydroimidazo[1,2-a]pyrido[3,4-e]pyrimidin-5(1H)-one]: in data set [1], the total water uptake was found to be 2.5% and the hygroscopicity result is recorded as “slightly hygroscopic”. The total water uptake in data set [1] (moles of water) amounted to 1.3 mol. The same compound came in with a water uptake in data set [1] (relative humidity of up to 96%) of 2.5%.

In the case of `O=C1C2=C(CCN(Cc3ccccc3)C2)N2CCN=C2N1Cc1ccc(F)cc1F` [Compound I Tosylate Form A, 7-benzyl-4-(2,4-difluorobenzyl)-2,4,6,7,8,9-hexahydroimidazo[1,2-a]pyrido[3,4-e]pyrimidin-5(1H)-one], the total water uptake in data set [1] amounted to 1.3%; in data set [1] (moles of water), 0.4 mol. In data set [1], the hygroscopicity entry is recorded as “slightly hygroscopic”. The water uptake in data set [1] (relative humidity of up to 96%) was determined as 1.3%.

Regarding `Cc1ccccc1CN1C(=O)C2=C(CCN(Cc3ccccc3)C2)N2CCN=C12` [ONC201], in data set [4], the tumor regressions result is reported as “induced durable tumor regressions”.
